Assay results as given in patent US20150217046A1, “DOSING REGIMENS FOR SUBCUTANEOUSLY INFUSIBLE ACIDIC COMPOSITIONS” (SynAgile Corporation, priority 2012, published 2015).

Tests used:
[1] = Rate of hydrolysis of LD esters in solution; type: physicochemical
Description: At a particular temperature and pH, the LDEs formed of LD and of different alcohols are hydrolyzed prior to their infusion at different rates. […] The rate of hydrolysis of LDE salts also depends on the anion, i.e., on the acid forming the LDE salt. LDE is hydrolyzed more rapidly when carboxylate anions and/or carboxylic acids replace the chloride anion or HCl. The rate of hydrolysis of the salt formed of LDEE and acetic acid can be about 3 times faster at about pH 4.5 at about 23° C. than that of LDEE.HCl, the salt formed of LDEE and HCl. The rate of hydrolysis at a particular pH and temperature can therefore depend on the buffering agent, e.g., citric acid and/or citrate anions, becoming faster when their concentration is elevated. Typically, the concentration of the buffering ions, i.e., the combined concentrations of citrates and citric acid, is between about 5 mM and 100 mM, for example between about 10 mM and 50 mM. The rate of hydrolysis can increase, for example, when the buffering citric acid-citrate concentration is increased.
In aqueous LDE salt pharmaceutical compositions, the hydrolysis rates generally decrease as the pH decreases, and the shelf life of the LDE salt consequently increases, unless the pH is about 1.7±0.5 or less. […] In acidic pharmaceutical compositions the amines of the LDEs are protonated, making the LDEs cations. […] The rates of hydrolysis generally increase with temperature, and may at least about double or about triple for each 10° C. increase, correspondingly decreasing upon cooling.

[2] = Infusion site reactions, intermittent and continuous subcutaneous infusion of 100 mg/mL LDEE pH 4.5 (Example 3); type: in vivo, minipigs
Excerpt: There were four treatment groups:
A: Six infusions, intermittent with ibuprofen.
B: Six infusions, intermittent with no ibuprofen.
C: Six infusions, continuous infusion with ibuprofen.
D: Six infusions, continuous infusion with no ibuprofen.

[3] = Infusion site reactions, subcutaneous infusion of 50 mg/mL LDEE pH 3.7 (Example 6); conditions: for # of Infusion Site Reactions/# of Infusion Sites: pH 3.7, 50 mg/mL
Description: Over the course of two consecutive days, four 6-12 week old juvenile minipigs weighing about 6-13 kg were each administered 18 subcutaneous infusions of LDEE pharmaceutical compositions at pH 3.7 (LDEE.HCl, pH adjusted with trisodium citrate). […] Intermittent and continuously infused doses of 137.5-140 mg (0.61-0.62 millimoles) were administered over 8 hours, and intermittent doses of 275 mg (1.22 millimoles) were administered over 16 hours (calculated mass of LDEE in its freebase form).
Each infusion site was spaced a minimum of 2 inches (5 cm) apart from any other infusion site. All minipigs received seven doses of oral carbidopa, 25 mg/dose: one dose at 12 hours prior to the infusion on the first day; 3 doses on the first day of infusion; and 3 doses on the second day of infusion.

## CCOC(=O)[C@@H](N)Cc1ccc(O)c(O)c1 [LDEE, levodopa ethyl ester]
[1]; near pH 7, about 37° C.
  rate of hydrolysis relative to LDME: about four times faster
[1]; neutral pH
  time to hydrolysis: within hours or less
[2]; 100 mg/mL (0.44 M) LDEE pH 4.5, 281 mg over 16 h s.c.
  diameter of firm swelling (infusion site reaction): 0.5-1.5 cm
[2]; 100 mg/mL (0.44 M) LDEE pH 4.5, 281 mg over 16 h s.c., Treatment A intermittent with ibuprofen, 3 Days Post-Infusion
  # of Infusion Site Reactions/# of Infusion Sites: 2/6
[2]; 100 mg/mL (0.44 M) LDEE pH 4.5, 281 mg over 16 h s.c., Treatment A intermittent with ibuprofen, 10 Days Post-Infusion
  # of Infusion Site Reactions/# of Infusion Sites: 5/6
[2]; 100 mg/mL (0.44 M) LDEE pH 4.5, 281 mg over 16 h s.c., Treatment A intermittent with ibuprofen, 15 Days Post-Infusion
  # of Infusion Site Reactions/# of Infusion Sites: 0/6
[2]; 100 mg/mL (0.44 M) LDEE pH 4.5, 281 mg over 16 h s.c., Treatment A intermittent with ibuprofen, Immediately Post-Infusion
  # of Infusion Site Reactions/# of Infusion Sites: 0/6
[2]; 100 mg/mL (0.44 M) LDEE pH 4.5, 281 mg over 16 h s.c., Treatment B intermittent, no ibuprofen, 3 Days Post-Infusion
  # of Infusion Site Reactions/# of Infusion Sites: 1/6
[2]; 100 mg/mL (0.44 M) LDEE pH 4.5, 281 mg over 16 h s.c., Treatment B intermittent, no ibuprofen, 10 Days Post-Infusion
  # of Infusion Site Reactions/# of Infusion Sites: 1/6
[2]; 100 mg/mL (0.44 M) LDEE pH 4.5, 281 mg over 16 h s.c., Treatment B intermittent, no ibuprofen, 15 Days Post-Infusion
  # of Infusion Site Reactions/# of Infusion Sites: 0/6
[2]; 100 mg/mL (0.44 M) LDEE pH 4.5, 281 mg over 16 h s.c., Treatment B intermittent, no ibuprofen, Immediately Post-Infusion
  # of Infusion Site Reactions/# of Infusion Sites: 0/6
[2]; 100 mg/mL (0.44 M) LDEE pH 4.5, 281 mg over 16 h s.c., Treatment C continuous with ibuprofen, 3 Days Post-Infusion
  # of Infusion Site Reactions/# of Infusion Sites: 2/6
[2]; 100 mg/mL (0.44 M) LDEE pH 4.5, 281 mg over 16 h s.c., Treatment C continuous with ibuprofen, 10 Days Post-Infusion
  # of Infusion Site Reactions/# of Infusion Sites: 6/6
[2]; 100 mg/mL (0.44 M) LDEE pH 4.5, 281 mg over 16 h s.c., Treatment C continuous with ibuprofen, 15 Days Post-Infusion
  # of Infusion Site Reactions/# of Infusion Sites: 0/6
[2]; 100 mg/mL (0.44 M) LDEE pH 4.5, 281 mg over 16 h s.c., Treatment C continuous with ibuprofen, Immediately Post-Infusion
  # of Infusion Site Reactions/# of Infusion Sites: 0/6
[2]; 100 mg/mL (0.44 M) LDEE pH 4.5, 281 mg over 16 h s.c., Treatment D continuous, no ibuprofen, 3 Days Post-Infusion
  # of Infusion Site Reactions/# of Infusion Sites: 4/6
[2]; 100 mg/mL (0.44 M) LDEE pH 4.5, 281 mg over 16 h s.c., Treatment D continuous, no ibuprofen, 10 Days Post-Infusion
  # of Infusion Site Reactions/# of Infusion Sites: 1/6
[2]; 100 mg/mL (0.44 M) LDEE pH 4.5, 281 mg over 16 h s.c., Treatment D continuous, no ibuprofen, 15 Days Post-Infusion
  # of Infusion Site Reactions/# of Infusion Sites: 0/6
[2]; 100 mg/mL (0.44 M) LDEE pH 4.5, 281 mg over 16 h s.c., Treatment D continuous, no ibuprofen, Immediately Post-Infusion
  # of Infusion Site Reactions/# of Infusion Sites: 0/6
[2]; 100 mg/mL (0.44 M) LDEE pH 4.5, 14-15 days post-infusion
  infusion site reactions, all treatments pooled: 0 out of 24
[2]; 281 mg LDEE in 100 mg/mL (0.44 M), pH 4.5, 24 out of 24 infusions
  granuloma formation: no granuloma formation
[3]; 50 mg/mL LDEE pH 3.7, about 0.34 mL per hour per site
  tolerability of infused volume per site: well tolerated
[3]; 137.5 mg, 8 hrs, Intermittent s.c., 0 hrs
  # of Infusion Site Reactions/# of Infusion Sites: 0/8
[3]; 137.5 mg, 8 hrs, Intermittent s.c., 12 hrs
  # of Infusion Site Reactions/# of Infusion Sites: 0/8
[3]; 137.5 mg, 8 hrs, Intermittent s.c., 24 hrs
  # of Infusion Site Reactions/# of Infusion Sites: 0/8
[3]; 137.5 mg, 8 hrs, Intermittent s.c., 3 days
  # of Infusion Site Reactions/# of Infusion Sites: 3/8
[3]; 140 mg, 8 hrs, Continuous s.c., 0 hrs
  # of Infusion Site Reactions/# of Infusion Sites: 0/4
[3]; 140 mg, 8 hrs, Continuous s.c., 12 hrs
  # of Infusion Site Reactions/# of Infusion Sites: 0/4
[3]; 140 mg, 8 hrs, Continuous s.c., 24 hrs
  # of Infusion Site Reactions/# of Infusion Sites: 0/4
[3]; 140 mg, 8 hrs, Continuous s.c., 3 days
  # of Infusion Site Reactions/# of Infusion Sites: 0/4
[3]; 275 mg, 16 hrs, Intermittent s.c., 0 hrs
  # of Infusion Site Reactions/# of Infusion Sites: 0/6
[3]; 275 mg, 16 hrs, Intermittent s.c., 12 hrs
  # of Infusion Site Reactions/# of Infusion Sites: 0/6
[3]; 275 mg, 16 hrs, Intermittent s.c., 24 hrs
  # of Infusion Site Reactions/# of Infusion Sites: 1/6
[3]; 275 mg, 16 hrs, Intermittent s.c., 3 days
  # of Infusion Site Reactions/# of Infusion Sites: 1/6
